# In patent US9364459B2, “3-(indolyl)- or 3-(azaindolyl)- 4-arylmaleimide derivatives for use in the treatment of colon and gastric adenocarcinoma” (Johannes Gutenberg-Universität Mainz, priority 2009, dated 2016):
# Legend:
# [1] = test system: chick embryo microvessel formation; assay: Quantitative chick embryo in vivo assay of antiangiogenic activity; details: Gallus gallus; 26 nM drug concentration/pellet; 24 hours incubation; read-out: Inhibition of microvessel area
# Method: Evaluation of Antiangiogenic Activity in a Quantitative Chick Embryo In Vivo Assay
# The inhibition of angiogenesis (new blood vessel formation) was measured as described in WO2006/061212.
# HT-29 = assay: Nicoletti apoptosis assay in HT-29 cells; format: cell-based, human; details: for Sub-G1 Fraction: HT-29; for Activity in combination with irinotecan relative to compound A, in words: HT-29 cells
# Method: (§1) Nicoletti Apoptosis Assay by Cell Cycle Analysis
# (§2) Cancer cells were transferred to 12-well flat-bottomed plates. […] Subsequently, cells were incubated in 1 ml medium containing various concentrations of test compounds at 37° C. with 5% CO2. After incubation the cells were washed with PBS, trypsinized, pelleted and mixed with PI buffer (containing 0.1% sodium citrate, 0.1% triton X-100, […] propidium iodide (PI)) and incubated for 1 hour at 4° C. Cell cycle sub-G1 fraction analysis was performed as described previously (Nicoletti, I. et al. (1991) J. Immunol. Methods 139, 271-279) using a flow cytometer (BD FACS Calibur™, BD Biosciences, Heidelberg, Germany). Each experiment was done in triplicate.
# GSK-3β = GSK-3β (Homo sapiens (Human), UniProt P49841); assay: GSK-3β kinase inhibition assay (Millipore IC50Profiler); format: biochemical; details: for GSK-3β IC50 values, in words: Table 2
# Chain of GSK-3β (P49841 whole entry): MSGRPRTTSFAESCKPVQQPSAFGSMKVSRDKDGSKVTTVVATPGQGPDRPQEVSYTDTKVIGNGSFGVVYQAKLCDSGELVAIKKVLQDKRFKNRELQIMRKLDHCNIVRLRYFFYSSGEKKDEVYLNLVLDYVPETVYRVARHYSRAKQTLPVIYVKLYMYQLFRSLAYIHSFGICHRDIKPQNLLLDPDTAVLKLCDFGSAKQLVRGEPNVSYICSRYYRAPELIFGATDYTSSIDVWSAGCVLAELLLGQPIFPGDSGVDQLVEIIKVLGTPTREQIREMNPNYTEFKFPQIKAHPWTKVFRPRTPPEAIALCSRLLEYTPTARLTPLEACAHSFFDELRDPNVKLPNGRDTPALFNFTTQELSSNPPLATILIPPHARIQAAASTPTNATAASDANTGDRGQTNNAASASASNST
# From the text: (§3) GSK-3β, VEGFR-2, FLT-3 Kinase Inhibition Assays
# (§4) Detailed protocols can be found at: www.millipore.com/drugdiscovery/dd3/assayprotocols.
# HUVEC = assay: Nicoletti apoptosis assay (sub-G1 fraction) in HUVEC; format: cell-based, human; details: 4 days, untreated 15.4 ± 1.5%
# Method: as §1, §2
# The same analysis was performed with HUVEC cells. 1.5×10^4 cells were plated into each well and treated with test compounds for 4 days.
# Human Umbilical Vein Endothelial Cells (HUVEC) known for mitogenic specifity for VEGF were obtained from the Department of Pathology, University Hospital of Mainz, Germany. The cells were cultured in M199 supplemented with 20% FCS, 1% Pen/Strep, 0.34% GlutaMAX-I, 25 μg/ml Endothelial Cell Growth Supplement (BD Biosciences), 25 μg/ml Heparin sodium (179 USP units/mg; Sigma, Germany) and were maintained at 37° C. and 5% CO2.
# VEGFR-2 = VEGFR-2 (Homo sapiens (Human), UniProt P35968); assay: VEGFR-2 kinase inhibition assay (Millipore IC50Profiler); format: biochemical; details: for VEGFR-2 IC50 values, in words: Table 2
# Chain of VEGFR-2 (P35968 20-1356): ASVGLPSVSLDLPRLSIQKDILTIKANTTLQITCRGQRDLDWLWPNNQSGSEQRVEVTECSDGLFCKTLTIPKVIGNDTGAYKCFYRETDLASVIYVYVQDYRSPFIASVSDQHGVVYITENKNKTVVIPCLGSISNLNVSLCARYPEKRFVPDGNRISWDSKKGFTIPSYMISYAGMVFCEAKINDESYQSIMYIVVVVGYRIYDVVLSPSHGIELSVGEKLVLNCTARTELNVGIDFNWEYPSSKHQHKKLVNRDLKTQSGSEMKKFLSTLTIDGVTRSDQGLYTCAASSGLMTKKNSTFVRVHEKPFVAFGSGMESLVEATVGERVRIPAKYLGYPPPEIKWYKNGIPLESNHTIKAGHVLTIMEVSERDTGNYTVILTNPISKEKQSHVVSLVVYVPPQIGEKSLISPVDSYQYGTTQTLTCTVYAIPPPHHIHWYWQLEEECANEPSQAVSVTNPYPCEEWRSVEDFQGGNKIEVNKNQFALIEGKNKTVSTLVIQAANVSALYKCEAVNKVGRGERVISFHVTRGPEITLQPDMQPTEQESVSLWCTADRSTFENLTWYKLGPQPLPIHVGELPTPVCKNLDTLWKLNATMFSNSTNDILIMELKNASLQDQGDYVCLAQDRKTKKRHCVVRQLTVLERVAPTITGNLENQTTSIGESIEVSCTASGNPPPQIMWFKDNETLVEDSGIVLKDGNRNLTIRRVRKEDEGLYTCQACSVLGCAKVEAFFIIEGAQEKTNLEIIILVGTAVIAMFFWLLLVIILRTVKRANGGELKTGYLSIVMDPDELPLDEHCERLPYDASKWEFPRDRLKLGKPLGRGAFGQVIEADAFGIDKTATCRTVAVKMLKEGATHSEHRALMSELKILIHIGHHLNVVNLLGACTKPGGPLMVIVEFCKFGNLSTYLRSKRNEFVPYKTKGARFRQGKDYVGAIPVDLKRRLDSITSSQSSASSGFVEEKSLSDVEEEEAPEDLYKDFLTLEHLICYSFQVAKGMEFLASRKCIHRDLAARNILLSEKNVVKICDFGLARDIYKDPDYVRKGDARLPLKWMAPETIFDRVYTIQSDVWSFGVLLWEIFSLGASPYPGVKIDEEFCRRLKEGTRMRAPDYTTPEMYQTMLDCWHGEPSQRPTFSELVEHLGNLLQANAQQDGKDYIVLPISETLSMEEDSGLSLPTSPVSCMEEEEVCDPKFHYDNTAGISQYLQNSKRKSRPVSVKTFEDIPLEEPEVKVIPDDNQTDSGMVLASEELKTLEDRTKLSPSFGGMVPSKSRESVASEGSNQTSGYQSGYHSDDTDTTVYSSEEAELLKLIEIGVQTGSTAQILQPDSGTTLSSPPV
# From the text: as §3, §4
# FLT-3 = FLT-3 (Homo sapiens (Human), UniProt P36888); assay: FLT-3 kinase inhibition assay (Millipore IC50Profiler); format: biochemical; details: for FLT-3 inhibition, in words: Table 2
# Chain of FLT-3 (P36888 27-993): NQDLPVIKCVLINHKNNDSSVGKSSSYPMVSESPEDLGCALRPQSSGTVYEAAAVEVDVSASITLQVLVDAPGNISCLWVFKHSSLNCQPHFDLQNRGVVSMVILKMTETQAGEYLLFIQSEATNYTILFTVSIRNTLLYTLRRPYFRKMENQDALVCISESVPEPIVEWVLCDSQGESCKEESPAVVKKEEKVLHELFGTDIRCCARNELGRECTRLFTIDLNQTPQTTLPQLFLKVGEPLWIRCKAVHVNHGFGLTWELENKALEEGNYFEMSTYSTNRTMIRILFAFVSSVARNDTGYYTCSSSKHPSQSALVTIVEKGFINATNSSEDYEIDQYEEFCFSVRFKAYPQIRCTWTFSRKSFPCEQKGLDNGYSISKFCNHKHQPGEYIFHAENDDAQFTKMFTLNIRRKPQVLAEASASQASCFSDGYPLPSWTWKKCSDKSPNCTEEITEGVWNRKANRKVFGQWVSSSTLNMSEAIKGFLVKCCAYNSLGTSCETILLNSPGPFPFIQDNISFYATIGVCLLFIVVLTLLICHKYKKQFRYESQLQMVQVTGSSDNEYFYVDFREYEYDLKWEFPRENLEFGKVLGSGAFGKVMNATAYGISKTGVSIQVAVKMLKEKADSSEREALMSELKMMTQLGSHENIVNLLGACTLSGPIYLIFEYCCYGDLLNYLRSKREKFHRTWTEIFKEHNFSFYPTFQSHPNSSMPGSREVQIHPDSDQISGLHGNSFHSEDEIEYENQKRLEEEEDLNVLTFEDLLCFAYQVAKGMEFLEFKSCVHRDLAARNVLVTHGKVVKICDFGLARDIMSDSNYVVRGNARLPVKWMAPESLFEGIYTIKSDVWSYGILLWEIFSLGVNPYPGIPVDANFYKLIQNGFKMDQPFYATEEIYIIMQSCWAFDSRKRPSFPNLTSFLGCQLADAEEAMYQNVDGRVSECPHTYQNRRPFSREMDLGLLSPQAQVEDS
# Method: as §3
# The effect of test compounds on the activity of the protein kinases GSK-3β, VEGFR-2 and FLT-3 was evaluated based on half maximal inhibitory concentration (IC50) values determined by Millipore UK Ltd; Gemini Crescent; Dundee Technology Park; Dundee DD2 1SW; UK (IC50Profiler). Detailed protocols can be found at: www.millipore.com/drugdiscovery/dd3/assayprotocols.
# [2] = test system: HT-29 human colon adenocarcinoma cells; assay: MTT viability assay in HT-29 cells; details: HT-29, 72 h, read-out: Viability of HT-29 cells as determined by MTT assay
# Method: Evaluation of Effect on Viability (MTT Assay)
# The antiproliferative activity of test compounds was determined by the 3-(4,5-dimethylthiazol-2-yl)-2,5-diphenyltetrazolium bromide (MTT) assay as described previously (Mosmann, T. et al. (1983) J. Immunol. Methods 65, 55-63). Cells in the exponential growth phase were transferred to 96-well flat-bottom plates. 10,000 viable cells contained in 200 μl cell suspension were plated into each well and incubated over night. Cells were then exposed to various concentrations of test compounds (100 μl/well) for 3 days at 37° C. with 5% CO2. Subsequently, 10 μl/well MTT stock solution (5 mg/ml; Biomol, Germany) was added and the cells were incubated at 37° C. with 5% CO2 for 4 hours. 100 μl solubilization solution (10% SDS in 0.01 M HCl) was added and the cells were incubated at 37° C. with 5% CO2 over night. Plates were read on an ELISA-Reader ELX 800 (BIO-TEK Software KC 4) at 562 nm absorbance. Each experiment was done in triplicate.
# HCT-116, HT-29 and SW480 cells were cultured in RPMI1640 supplemented with 10% FCS. […] All cells were maintained at 37° C. and 5% CO2.
# [3] = Table 8, 7.9 μM test compound alone, drug-free control 3.4 ± 0.9%
# [4] = Table 8, 7.9 μM test compound plus 1.18 μM irinotecan
Structure (SMILES),Sub-G1 Fraction (HT-29; [3]) [%],Sub-G1 Fraction (HT-29; [4]) [%],IC50 (GSK-3β) [nM],"GSK-3β IC50 values, in words (GSK-3β)",IC50 (VEGFR-2) [nM],IC50 (FLT-3) [nM],melting point [°C],also measured
"COc1cc(C2=C(c3c[nH]c4ccncc34)C(=O)NC2=O)cc(OC)c1OC [Compound D, 3-(5-Azaindol-3-yl)-4-(3,4,5-trimethoxyphenyl)-maleinimid]",21.51 ± 2.89,47.53 ± 0.47,50,low nanomolar range,23,6270,,"inhibition at 0.026 µM [1]: 69%; Sub-G1 Fraction (HUVEC; 0.79 μM): 25.7 ± 1.2%; Sub-G1 Fraction (HUVEC; 2.6 μM): 70.2 ± 2.7%; Sub-G1 Fraction (HUVEC; 7.9 μM): 79.9 ± 3.8%; VEGFR-2 IC50 values, in words (VEGFR-2): low nanomolar range; viability at 2.6 µM [2]: 62.21 ± 0.33%; viability at 7.9 µM [2]: 64.2 ± 0.76%; viability at 26 µM [2]: 39.6 ± 1.9%; viability at 52 µM [2]: 19.2 ± 0.26%"
"COc1cc(C2=C(c3cn(CCN4CCCCC4)c4ccccc34)C(=O)NC2=O)cc(OC)c1OC [L, 3-{1-[2-(piperidin-1-yl)ethyl]-1H-indol-3-yl}-4-(3,4,5-trimethoxyphenyl)-maleinimide]",4.64 ± 0.75,62.32 ± 1.63,> 1000,,1210,1240,179 to 180,"Activity in combination with irinotecan relative to compound A, in words (HT-29): even more potent than compound A"
"COc1cc(C2=C(c3cn(CCO)c4ccccc34)C(=O)NC2=O)cc(OC)c1OC [H, 3-(1-[2-Hydroxyethyl]-1H-indol-3-yl)-4-(3,4,5-trimethoxyphenyl)-maleinimide]",8.08 ± 0.77,71.28 ± 3.51,,low nanomolar range,,554,195 to 196,"Activity in combination with irinotecan relative to compound A, in words (HT-29): even more potent than compound A"
"COc1cc(C2=C(c3cn(CCN4CCOCC4)c4ccccc34)C(=O)NC2=O)cc(OC)c1OC [M, 3-{1-(2-morpholinoethyl)-1H-indol-3-yl}-4-(3,4,5-trimethoxyphenyl)-maleinimide]",10.01 ± 2.16,56.81 ± 3.96,657,,9200,> 10000,238 to 239,
"COc1cc(C2=C(c3c[nH]c4cnccc34)C(=O)NC2=O)cc(OC)c1OC [Compound C, 3-(6-Azaindol-3-yl)-4-(3,4,5-trimethoxyphenyl)-maleinimid]",79.9 ± 4.13,75.69 ± 1.77,< 10,low nanomolar range,48,1900,,"inhibition at 0.026 µM [1]: 32%; Sub-G1 Fraction (HUVEC; 0.79 μM): 48.0 ± 2.3%; Sub-G1 Fraction (HUVEC; 2.6 μM): 66.3 ± 1.0%; VEGFR-2 IC50 values, in words (VEGFR-2): low nanomolar range; viability at 2.6 µM [2]: 30.4 ± 1.52%; viability at 7.9 µM [2]: 25.8 ± 3.52%; viability at 26 µM [2]: 12.7 ± 2.6%; viability at 52 µM [2]: 4.22 ± 0.44%"
"COc1cc(C2=C(c3cn(CCCO)c4ccccc34)C(=O)NC2=O)cc(OC)c1OC [I, 3-(1-[3-Hydroxypropyl]-1H-indol-3-yl)-4-(3,4,5-trimethoxyphenyl)-maleinimide]",11.25 ± 0.11,65.71 ± 0.04,,low nanomolar range,,556,160,
"COc1cc(C2=C(c3c[nH]c4cccnc34)C(=O)NC2=O)cc(OC)c1OC [E, 3-(4-Azaindol-3-yl)-4-(3,4,5-trimethoxyphenyl)-1H-pyrrol-2,5-dione]",4.22 ± 0.74,25.71 ± 1.97,215,,373,1520,274 to 275,viability at 2.6 µM [2]: 114 ± 5.2%; viability at 7.9 µM [2]: 98.31 ± 0.9%; viability at 26 µM [2]: 92.6 ± 2.8%; viability at 52 µM [2]: 65.8 ± 1.5%
"COc1cc(C2=C(c3c[nH]c4ncccc34)C(=O)NC2=O)cc(OC)c1OC [B, 3-(7-Azaindol-3-yl)-4-(3,4,5-trimethoxyphenyl)-maleinimid]",2.32 ± 1.16,22.36 ± 2.80,> 10000,,37,132,,"inhibition at 0.026 µM [1]: 61%; Sub-G1 Fraction (HUVEC; 0.79 μM): 26.7 ± 1.9%; Sub-G1 Fraction (HUVEC; 2.6 μM): 49.2 ± 2.2%; Sub-G1 Fraction (HUVEC; 7.9 μM): 69.5 ± 3.4%; VEGFR-2 IC50 values, in words (VEGFR-2): low nanomolar range; FLT-3 inhibition, in words (FLT-3): most significantly inhibited; viability at 2.6 µM [2]: 65 ± 2.16%; viability at 7.9 µM [2]: 45.5 ± 3.71%; viability at 26 µM [2]: 38.5 ± 0.99%; viability at 52 µM [2]: 38.1 ± 5.43%"
"COc1cc2c(Nc3ccc(Br)cc3F)ncnc2cc1OCC1CCN(C)CC1 [vandetanib, reference compound]",,,,,,,,"Sub-G1 Fraction (HT-29; Table 9, 10 μM vandetanib plus 1.18 μM Irinotecan, 7 days): 35.2 ± 0.4%; Sub-G1 Fraction (HT-29; Table 9, single-agent treatment, 10 μM vandetanib, 7 days): 11.1 ± 1.9%"
"COc1cc(C2=C(c3cn(CCN(C)C)c4ccccc34)C(=O)NC2=O)cc(OC)c1OC [J, 3-{1-[2-(Dimethylamino)ethyl]-1H-indol-3-yl}-4-(3,4,5-trimethoxyphenyl)-maleinimide]",2.50 ± 1.73,43.48 ± 1.87,3580,,1300,> 1000,184 to 185,
"COc1cc(C2=C(c3cn(CCCN)c4ccccc34)C(=O)NC2=O)cc(OC)c1OC.Cl [G, 3-(1-[3-Ammoniopropyl]-1H-indol-3-yl)-4-(3,4,5-trimethoxyphenyl)-maleinimide-chloride]",4.01 ± 0.66,56.01 ± 0.29,129,low nanomolar range,1500,> 1000,,
"CCN(CC)CCNC(=O)c1c(C)[nH]c(/C=C2\C(=O)Nc3ccc(F)cc32)c1C [sunitinib, reference compound]",,,,,,,,"Sub-G1 Fraction (HT-29; Table 9, 5 μM sunitinib plus 1.18 μM Irinotecan, 7 days): 24.5 ± 1.2%; Sub-G1 Fraction (HT-29; Table 9, single-agent treatment, 5 μM sunitinib, 7 days): 11.8 ± 1.0%"
"COc1cc(C2=C(c3cn(CCCN4CCN(C)CC4)c4ccccc34)C(=O)NC2=O)cc(OC)c1OC [N, 3-{1-[3-(4-Methylhexahydro-1-pyrazindiiumyl)propyl]-1H-indol-3-yl}-4-(3,4,5-trimethoxyphenyl)-maleinimide dichloride]",3.01 ± 0.40,49.49 ± 1.82,3240,,2830,> 10000,,
"COc1cc(C2=C(c3cn(CCN)c4ccccc34)C(=O)NC2=O)cc(OC)c1OC.Cl [F, 3-(1-[2-Ammonioethyl]-1H-indol-3-yl)-4-(3,4,5-trimethoxyphenyl)-maleinimide-chloride]",5.69 ± 0.69,51.00 ± 0.56,195,low nanomolar range,1880,227,,"FLT-3 inhibition, in words (FLT-3): most significantly inhibited"
"COc1cc(C2=C(c3cn(CCCN(C)C)c4ccccc34)C(=O)NC2=O)cc(OC)c1OC [K, 3-{1-[3-(Dimethylamino)propyl]-1H-indol-3-yl}-4-(3,4,5-trimethoxyphenyl) maleinimide]",3.17 ± 0.86,50.28 ± 1.31,> 1000,,> 10000,1530,,
